Experimental data taken from ChEMBL document CHEMBL1145059, “Bispyridinium cyclophanes: novel templates for human choline kinase inhibitors” (J Med Chem, 2003).

How the values were obtained:
[1] = test system: HT-29; assay: In vitro inhibition of proliferation in ras transformed cells on the HT-29 (Human tumor) cell line; format: functional, cell-based
[2] = molecular target: Choline kinase alpha (Homo sapiens, UniProt P35790); assay: Ex vivo inhibitory activity against human choline kinase was determined
Sequence of Choline kinase alpha (P35790 whole entry): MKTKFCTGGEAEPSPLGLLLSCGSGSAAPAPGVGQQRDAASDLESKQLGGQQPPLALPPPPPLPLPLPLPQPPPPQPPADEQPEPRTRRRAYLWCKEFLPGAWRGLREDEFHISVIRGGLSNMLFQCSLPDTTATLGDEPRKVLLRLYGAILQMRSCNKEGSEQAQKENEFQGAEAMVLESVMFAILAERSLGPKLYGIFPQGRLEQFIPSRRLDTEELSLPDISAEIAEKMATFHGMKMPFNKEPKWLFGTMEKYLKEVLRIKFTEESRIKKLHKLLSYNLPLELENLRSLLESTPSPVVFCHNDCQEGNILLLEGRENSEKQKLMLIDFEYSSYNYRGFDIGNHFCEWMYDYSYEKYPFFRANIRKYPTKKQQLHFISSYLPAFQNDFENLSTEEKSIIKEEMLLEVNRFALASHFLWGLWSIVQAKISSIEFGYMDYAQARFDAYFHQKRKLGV

| Compound | IC50 [1] [µM] | IC50 [2] [µM] |
| --- | --- | --- |
| c1cc2cc(c1)CNc1cc[n+](cc1)Cc1ccc(cc1)C[n+]1ccc(cc1)NC2 | 28.8 | 0.3 |
| c1cc2ccc1CNc1cc[n+](cc1)Cc1ccc(cc1)C[n+]1ccc(cc1)NC2 | 36.9 | 2.1 |
| CN(c1ccc(Cl)cc1)c1cc[n+](Cc2cc(C[n+]3ccc(N(C)c4ccc(Cl)cc4)cc3)cc(C[n+]3ccc(N(C)c4ccc(Cl)cc4)cc3)c2)cc1 | – | 1.4 |

More lines, now with the values ahead:

| IC50 [1] [µM] | IC50 [2] [µM] | Compound |
| --- | --- | --- |
| > 100 | 13.2 | c1cc2cc(c1)CNc1cc[n+](cc1)Cc1cccc(c1)C[n+]1ccc(cc1)NC2 |
| 58.6 | 24.8 | c1cc2cc(c1)C[n+]1ccc(cc1)NCc1ccc(cc1)CNc1cc[n+](cc1)C2 |
